From ChEMBL document CHEMBL1201862, “PubChem BioAssay data set” (2004) come the findings set out here.

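Five compound concentrations were applied to cells in 96-well plates for 48 hours; endpoints were derived by simple linear interpolation of the resulting dose-response curve. GI50 marks 50% less growth.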 Calls of active or inactive are those of the source. Rule as the data show it: active = GI50 up to about 1.1 µM and inactive = higher.

Test systems include ACHN; CAKI-1; DLD-1; HCT-116; HOP-62; IGROV-1; KM-20L2; M14; M19-MEL; NCI-H226; NCI-H460; NCI-H522; SF-295; SR; A498; MCF7; NCI/ADR-RES.
Holding throughout (experiment): inhibition of tumour cell growth, NCI panel, 48 h

On to `O=C(Nc1ccc(Cl)cc1)c1cc2cc(/N=N/c3ccccc3Cl)ccc2oc1=O`, for which the GI50 with ACHN is 6.3 µM (inactive); in the assay with CAKI-1 it was 24.9 µM (inactive); in the assay with DLD-1, 9.64 µM (inactive); with HCT-116, 11.2 µM (inactive); with HOP-62, 26.9 µM (inactive); in the assay with IGROV-1 it was 19 µM (inactive). The GI50 was 4.93 µM (inactive) with KM-20L2; 15.5 µM (inactive) with M14; 14.3 µM (inactive) in the assay on M19-MEL; 22.3 µM (inactive) in the assay with NCI-H226; 26.8 µM (inactive) in the assay with NCI-H460; 21.7 µM (inactive) with NCI-H522. Also, the GI50 with SF-295 was 28.7 µM (inactive); in the assay with SR, 15.8 µM (inactive).
In the case of `CCCC[S+]([O-])CC(CO)NC(=O)/C=C/c1c(C)[nH]c(=O)[nH]c1=O` (configuration not stated), the GI50 in the assay with A498 is 7.8 µM (inactive); in the assay on CAKI-1, 18.9 µM (inactive); in the assay on DLD-1 it was 12.1 µM (inactive); in the assay with HCT-116, 10 µM (inactive); in the assay on HOP-62, 8.93 µM (inactive); in the assay with IGROV-1 it was 7.29 µM (inactive). Moreover, the GI50 in the assay on KM-20L2 was 5.64 µM (inactive); in the assay on M19-MEL, 2.22 µM (inactive); in the assay with MCF7 it was 8.67 µM (inactive); with NCI-H226, 11.7 µM (inactive); in the assay with NCI-H460 it was 3.12 µM (inactive); in the assay with NCI-H522, 5.77 µM (inactive). Moreover, the GI50 is 12.4 µM (inactive) in the assay on NCI/ADR-RES and 8.38 µM (inactive) in the assay on SF-295.
As to `N/C(=N\O)N/N=C\c1ccc(O)c(O)c1O`, the GI50 with A498 is > 30.8 µM (inactive); in the assay on CAKI-1 it was 29.4 µM (inactive); with DLD-1, 23.8 µM (inactive); in the assay on HCT-116 it was 27.5 µM (inactive); in the assay with HOP-62 it was > 41.1 µM (inactive); in the assay with IGROV-1 it was 57 µM (inactive). Besides, the GI50 is 26.7 µM (inactive) in the assay with KM-20L2; 20.1 µM (inactive) with M19-MEL; 16.7 µM (inactive) with MCF7; 39.1 µM (inactive) with NCI-H226; 17.1 µM (inactive) with NCI-H460; 24.1 µM (inactive) in the assay with NCI-H522. The GI50 in the assay with NCI/ADR-RES is 19.5 µM (inactive); in the assay on SF-295, 12.2 µM (inactive).
Consider `S=c1sc2c(s1)SC(c1ccccc1)CS2` (configuration not stated), for which the GI50 was > 100 µM (inactive) in the assay on A498; 1 µM (active) in the assay with CAKI-1; > 100 µM (inactive) in the assay on DLD-1; > 100 µM (inactive) in the assay on HCT-116; > 90.8 µM (inactive) in the assay on HOP-62; > 100 µM (inactive) in the assay with IGROV-1. The GI50 in the assay with KM-20L2, with M19-MEL, with MCF7, in the assay on NCI-H226, in the assay on NCI-H460 and in the assay with NCI-H522 was > 100 µM (inactive) each time. Moreover, the values for the GI50 with NCI/ADR-RES and in the assay with SF-295 were > 52 µM (inactive) and 25.8 µM (inactive), respectively.
As for `COc1ccc([C@H]2c3cc4c(cc3OC(O)(CO)[C@H]2C(=O)O)OCO4)c(OC)c1.COc1ccc([C@H]2c3cc4c(cc3OC3(O)COC(=O)[C@@H]23)OCO4)c(OC)c1` (some centres not stated), the GI50 is > 100 µM (inactive) with A498; > 100 µM (inactive) in the assay on ACHN; 91.8 µM (inactive) in the assay with DLD-1; > 100 µM (inactive) with HCT-116; > 100 µM (inactive) in the assay with HOP-62; > 100 µM (inactive) in the assay with IGROV-1. For the same compound, the GI50 in the assay on KM-20L2 is > 100 µM (inactive); in the assay with M14, > 100 µM (inactive); in the assay on M19-MEL it was 61.7 µM (inactive); with NCI-H226 it was > 100 µM (inactive); in the assay with NCI-H460 it was > 100 µM (inactive); in the assay on SF-295, > 100 µM (inactive). In addition, the GI50 in the assay with SR is 56 µM (inactive).
In the case of `COc1cc(/N=N\c2cccc(S(=O)(=O)O)c2)ccc1/N=N\c1ccc(/C=C/c2ccc(-n3on3-c3ccc(/C=C/c4ccc(/N=N/c5ccc(/N=N\c6cccc(S(=O)(=O)O)c6)cc5OC)cc4S(=O)(=O)O)c(S(=O)(=O)O)c3)cc2S(=O)(=O)O)c(S(=O)(=O)O)c1`, the GI50 in the assay with A498, in the assay with DLD-1, with HCT-116, in the assay on HOP-62, in the assay with IGROV-1 and in the assay on KM-20L2 was > 100 µM (inactive) each time. In addition, the GI50 in the assay on M19-MEL, in the assay on MCF7, in the assay on NCI-H226, with NCI-H460, in the assay with NCI-H522 and with NCI/ADR-RES was > 100 µM (inactive) throughout. In addition, in the assay on SF-295, the GI50 was > 100 µM (inactive).
